Holding throughout (assay type): cell-based
One assay concerns H460 (lung carcinoma). Kind of assay: Antiproliferative activity, MTT test, H460. The conditions noted are these: Homo sapiens, NCI-H460; H460 cells, 5 days treatment, MTT on day 6; read-out: IC50, concentration necessary to reduce the cell growth to 50% of the growth of the control. On the procedure:
(§1) Antiproliferative activity of the DDS was determined on three lines of carcinoma (HT29: colon rectal carcinoma, H460: lung carcinoma, H460M2: lung metastatic carcinoma which are CPT sensitive. Cells were incubated in 96-well plates for 5 days in complete RPMI1640 Medium (Sigma Chemical Co.) supplemented with 10% FBS (Hyclone Europe), 2 mM L-glutamine (Hyclone Europe), and 100 U/ml penicillin G and 100 ug/ml streptomycin (Sigma Chemical Co.) at […], and in controlled atmosphere (5% CO2), with irinotecan and DDSs of examples 38, 39, 41; the DDS were tested at doses equimolar with those of the reference, in the range 3-30 nM and 0.1-30 μM.
(§2) Cytotoxicity was determined on day 6 (after 5 days treatments) by the MTT test, by measuring cell viability as the cell metabolic capacity to transform the tetrazolium salt of MTT in the blue formazan, by mitochondrial dehydrogenases; the blue colour is read at 570 nm with a spectrophotometer. The following DDSs were tested.
(Formazan colour is commonly taken as a measure of viable cells.)

The test system of assay [1] is HT29 (colon rectal carcinoma). Briefly: Antiproliferative activity, MTT test, HT29. As to conditions: Homo sapiens, HT-29; HT29 cells, 5 days treatment, MTT on day 6; read-out: IC50, concentration necessary to reduce the cell growth to 50% of the growth of the control. As for the experimental part:
as §1, §2

The subject of assay [2] is H460-M2 (lung metastatic carcinoma). Kind of assay: Antiproliferative activity, MTT test, H460-M2. As to conditions: H460-M2 cells, 5 days treatment, MTT on day 6; read-out: IC50, concentration necessary to reduce the cell growth to 50% of the growth of the control. On the procedure: as §1, §2

Take `CCc1c2c(nc3ccc(OC(=O)N4CCC(N5CCCCC5)CC4)cc13)-c1cc3c(c(=O)n1C2)COC(=O)[C@]3(O)CC` [Irinotecan, irinotecan]: the results for the IC50 (in the assay on H460 (lung carcinoma); in assay [1]; in assay [2]) were 440 nM, 250 nM and 460 nM, respectively.
